In the supplement of paper PMC10627819 one finds Bliss interaction score and fitness data, which are given here for nine compounds.

SMILES strings stand for the structures.

Experiment [1] concerns B. subtilis 168. The experiment in a line: Bliss interaction score (quartile over a dose matrix) (fitness difference); higher = more antagonism (negative = synergy). Summed up: (§1)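 Growth was read as OD595 when cultures entered stationary phase, and each value was divided by the plate's robust no-drug mean and capped at 1. This normalised ratio is the fitness value, and fitness for each single drug came from the combination data. The Bliss score subtracts the expected fitness, taken as the product, from the observed fitness and is given as quartiles across technical, biological and donor/recipient replicates.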

In experiment [2] the test system is S. aureus Newman. The description is as above. The gist of the method:
as §1

For experiment [3], the system named is S. pneumoniae D39V. Described as above. Summed up:
as §1

The next experiment deals with S. aureus DSM 20231. Described as above. The gist of the method:
as §1

For experiment [4], the system named is B. subtilis 168. The experiment in a line: fitness (endpoint OD595 vs no drug) (fraction); higher = more growth. Summed up: (§2)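 Background-subtracted growth curves were the basis for fitness, taken as the optical density at entry into stationary phase over the robust mean of no-drug control wells. A cap of 1 was applied. The curves came from OD595 readings every 30 min for 14 h at 37 °C, in 384-well plates seeded at OD595 0.01 with 30 µl, or 55 µl for S. pneumoniae.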

Experiment [5] concerns S. aureus Newman. The description is as above. Summed up: as §2
Experiment [6] has as its system S. pneumoniae D39V. Described as above. The gist of the method: as §2
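Wherever Bliss interaction score (quartile over a dose matrix) is given: first quartile when negative (synergy) and third quartile when positive (antagonism).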

Consider `COc1cccc2c1C(=O)c1c(O)c3c(c(O)c1C2=O)C[C@@](O)(C(=O)CO)C[C@@H]3O[C@H]1C[C@H](N)[C@H](O)[C@H](C)O1` [Doxorubicin] + CC[C@H]1OC(=O)[C@H](C)[C@@H](O[C@H]2C[C@@](C)(OC)[C@@H](O)[C@H](C)O2)[C@H](C)[C@@H](O[C@@H]2O[C@H](C)C[C@H](N(C)C)[C@H]2O)[C@](C)(O)C[C@@H](C)C(=O)[C@H](C)[C@@H](O)[C@]1(C)O [Erythromycin], for which the Bliss interaction score with B. subtilis 168 [1] turned out to be 0.0769; in the experiment with S. aureus Newman [2], 0.0828; with S. pneumoniae D39V [3] it was 0.0705; with S. aureus DSM 20231, 0.0463.

Consider `CC(=O)Oc1ccccc1C(=O)O` [Acetylsalicylicacid] + CN1C2=CC=CC=C2N=C3C1=CC=CC3=O [Pyocyanin], for which the Bliss interaction score in the experiment with B. subtilis 168 [1] is -0.0887; with S. aureus Newman [2], -0.0562; with S. pneumoniae D39V [3] it was -0.0649; with S. aureus DSM 20231, -0.0748.

As to `CN(C)[C@@H]1C(O)=C(C(N)=O)C(=O)[C@@]2(O)C(O)=C3C(=O)c4c(O)ccc(Cl)c4[C@@](C)(O)[C@H]3C[C@@H]12` [Clortetracycline] + CC(C1CCC(C(O1)OC2C(CC(C(C2O)OC3C(C(C(CO3)(C)O)NC)O)N)N)N)NC [Gentamicin], the Bliss interaction score in the experiment with B. subtilis 168 [1] (main component drawn) was 0.181; with S. aureus Newman [2] (main component drawn) it was 0.141; in the experiment on S. pneumoniae D39V [3] (main component drawn) it was -0.183; in the experiment on S. aureus DSM 20231 (main component drawn) it was 0.0919.

With `CO/N=C(\C(=O)N[C@@H]1C(=O)N2C(C(=O)O)=C(COC(N)=O)CS[C@H]12)c1ccco1` [Cefuroxime] + O=C(O)[C@H]1/C(=C/CO)O[C@@H]2CC(=O)N21 [Clavulanic], the Bliss interaction score in the experiment with B. subtilis 168 [1] is -0.0417; in the experiment on S. pneumoniae D39V [3], -0.0363.

In the case of `O=C(O)c1cn(C2CC2)c2cc(N3CCNCC3)c(F)cc2c1=O` [Ciprofloxacin] + Cc1onc(-c2ccccc2)c1C(=O)N[C@@H]1C(=O)N2[C@@H]1SC(C)(C)[C@@H]2C(=O)O [Oxacillin], the fitness came to 0.894 in the experiment on B. subtilis 168 [4] (first compound 0.0098 µg/mL, partner 0.002 µg/mL); 0.866 with B. subtilis 168 [4] (first compound 0.0098 µg/mL, partner 0.004 µg/mL); 0.976 with B. subtilis 168 [4] (first compound 0.0098 µg/mL, partner 0.0078 µg/mL, one replicate); 0.863 in the experiment on B. subtilis 168 [4] (first compound 0.0098 µg/mL, partner 0.008 µg/mL); 0.905 in the experiment on B. subtilis 168 [4] (first compound 0.0098 µg/mL, partner 0.0155 µg/mL, one replicate); 0.965 with B. subtilis 168 [4] (first compound 0.0098 µg/mL, partner 0.031 µg/mL, one replicate). The fitness in the experiment with B. subtilis 168 [4] (first compound 0.0098 µg/mL, partner 0.075 µg/mL, one replicate) was found to be 0.375; in the experiment with B. subtilis 168 [4] (first compound 0.0195 µg/mL, partner 0.002 µg/mL) it was 0.748; with B. subtilis 168 [4] (first compound 0.0195 µg/mL, partner 0.004 µg/mL) it was 0.693; in the experiment on B. subtilis 168 [4] (first compound 0.0195 µg/mL, partner 0.0078 µg/mL, one replicate), 0.814; with B. subtilis 168 [4] (first compound 0.0195 µg/mL, partner 0.008 µg/mL) it was 0.61; in the experiment on B. subtilis 168 [4] (first compound 0.0195 µg/mL, partner 0.0155 µg/mL, one replicate), 0.779. For the same compound, the fitness with B. subtilis 168 [4] (first compound 0.0195 µg/mL, partner 0.031 µg/mL, one replicate) came out at 0.729; with B. subtilis 168 [4] (first compound 0.0195 µg/mL, partner 0.075 µg/mL, one replicate) it was 0.0252; in the experiment with B. subtilis 168 [4] (first compound 0.0195 µg/mL, partner 0.15 µg/mL, one replicate), 0.0469; in the experiment with B. subtilis 168 [4] (first compound 0.0195 µg/mL, partner 0.3 µg/mL, one replicate), 0.0517; in the experiment on B. subtilis 168 [4] (first compound 0.039 µg/mL, partner 0.002 µg/mL), 0.0478; with B. subtilis 168 [4] (first compound 0.039 µg/mL, partner 0.004 µg/mL), 0.0457. The fitness in the experiment with B. subtilis 168 [4] (first compound 0.039 µg/mL, partner 0.0078 µg/mL, one replicate) came out at 0.136; with B. subtilis 168 [4] (first compound 0.039 µg/mL, partner 0.008 µg/mL), 0.054; in the experiment with B. subtilis 168 [4] (first compound 0.039 µg/mL, partner 0.0155 µg/mL, one replicate), 0.191; with B. subtilis 168 [4] (first compound 0.039 µg/mL, partner 0.031 µg/mL, one replicate), 0.0978; in the experiment with B. subtilis 168 [4] (first compound 0.039 µg/mL, partner 0.075 µg/mL, one replicate), 0.0437; in the experiment with B. subtilis 168 [4] (first compound 0.039 µg/mL, partner 0.15 µg/mL, one replicate), 0.0478. Also, the fitness in the experiment with B. subtilis 168 [4] (first compound 0.039 µg/mL, partner 0.3 µg/mL, one replicate) came to 0.0488; in the experiment on S. aureus Newman [5] (first compound 0.0375 µg/mL, partner 0.0156 µg/mL), 0.622; in the experiment with S. aureus Newman [5] (first compound 0.0375 µg/mL, partner 0.0312 µg/mL), 0.612; in the experiment with S. aureus Newman [5] (first compound 0.0375 µg/mL, partner 0.0625 µg/mL), 0.573; with S. aureus Newman [5] (first compound 0.075 µg/mL, partner 0.0156 µg/mL) it was 0.635; in the experiment on S. aureus Newman [5] (first compound 0.075 µg/mL, partner 0.0312 µg/mL), 0.618. The fitness in the experiment with S. aureus Newman [5] (first compound 0.075 µg/mL, partner 0.0625 µg/mL) was 0.494; in the experiment with S. aureus Newman [5] (first compound 0.15 µg/mL, partner 0.0156 µg/mL) it was 0.0645; in the experiment on S. aureus Newman [5] (first compound 0.15 µg/mL, partner 0.0312 µg/mL) it was 0.0732; in the experiment with S. aureus Newman [5] (first compound 0.15 µg/mL, partner 0.0625 µg/mL), 0.0443; with S. pneumoniae D39V [6] (first compound 0.125 µg/mL, partner 0.005 µg/mL), 0.987; in the experiment with S. pneumoniae D39V [6] (first compound 0.125 µg/mL, partner 0.01 µg/mL), 0.969. Besides, the fitness is 0.915 in the experiment with S. pneumoniae D39V [6] (first compound 0.125 µg/mL, partner 0.02 µg/mL); 0.535 with S. pneumoniae D39V [6] (first compound 0.125 µg/mL, partner 0.04 µg/mL); 0.989 in the experiment with S. pneumoniae D39V [6] (first compound 0.25 µg/mL, partner 0.005 µg/mL, one replicate); 0.934 in the experiment with S. pneumoniae D39V [6] (first compound 0.25 µg/mL, partner 0.01 µg/mL); 0.844 in the experiment on S. pneumoniae D39V [6] (first compound 0.25 µg/mL, partner 0.02 µg/mL); 0.424 with S. pneumoniae D39V [6] (first compound 0.25 µg/mL, partner 0.04 µg/mL). The fitness with S. pneumoniae D39V [6] (first compound 0.5 µg/mL, partner 0.005 µg/mL) was found to be 0.815; in the experiment with S. pneumoniae D39V [6] (first compound 0.5 µg/mL, partner 0.04 µg/mL) it was 0.354. Also, the Bliss interaction score with B. subtilis 168 [1] was -0.0871; in the experiment on S. aureus Newman [2], 0.0816; in the experiment on S. aureus DSM 20231, 0.0341.

As to `COCCOC(=O)C1=C(C)NC(C)=C(C(=O)OC/C=C/c2ccccc2)C1c1cccc([N+](=O)[O-])c1` (stereo not given) [Cilnidipine] + C[C@H]1c2cccc(O)c2C(=O)C2=C(O)[C@]3(O)C(=O)C(C(N)=O)=C(O)[C@@H](N(C)C)[C@@H]3[C@@H](O)[C@@H]21 [Doxycycline], the Bliss interaction score with S. aureus DSM 20231 is -0.272.

On to `CC(=O)Oc1cccc2c1C(=O)c1c(OC(C)=O)cc(C(=O)O)cc1C2=O` [Diacerein] + CN(C)C(=O)C(CCN1CCC(O)(c2ccc(Cl)cc2)CC1)(c1ccccc1)c1ccccc1 [Loperamide], for which the Bliss interaction score with S. aureus DSM 20231 was -0.474.

`CC(=O)Oc1ccccc1C(=O)O` [Acetylsalicylicacid] + C=C1/C(=C\C=C2/CCC[C@]3(C)[C@@H]([C@H](C)CCCC(C)C)CC[C@@H]23)C[C@@H](O)C[C@@H]1O [Alfacalcidol]: the Bliss interaction score with S. aureus DSM 20231 was -0.294.

With `CC(=O)Oc1ccccc1C(=O)O` [Acetylsalicylicacid] + CC(C)Cc1ccc(C(C)C(=O)O)cc1 [Ibuprofen], in the experiment on S. aureus DSM 20231, the Bliss interaction score was -0.275.
